Experiments:
Experiment in all cases: biochemical
S6K1 = biological target: T1, S6K1 (Homo sapiens, UniProt P23443); design: Dundee MRC-PPU Express kinase screen, remaining kinase activity; details: read-out: Mean % of remaining kinase activity (±sd)
T1 construct: gene RPS6KB1

PKCa = biological target: T2, PKCa (Homo sapiens, UniProt P17252); design: Dundee MRC-PPU Express kinase screen, remaining kinase activity; details: read-out: Mean % of remaining kinase activity (±sd)
T2 construct: gene PRKCA

PAK4 = PAK4 (Homo sapiens, UniProt O96013); design: Dundee MRC-PPU Express kinase screen, remaining kinase activity; details: read-out: Mean % of remaining kinase activity (±sd)
SmMLCK = biological target: T3, SmMLCK (Homo sapiens, UniProt Q15746); design: Dundee MRC-PPU Express kinase screen, remaining kinase activity; details: read-out: Mean % of remaining kinase activity (±sd)
T3 construct: gene MYLK; smooth muscle

JNK1 = biological target: T4, JNK1 (Homo sapiens, UniProt P45983); design: Dundee MRC-PPU Express kinase screen, remaining kinase activity; details: read-out: Mean % of remaining kinase activity (±sd)
T4 construct: gene MAPK8
T4 sequence (P45983 whole entry): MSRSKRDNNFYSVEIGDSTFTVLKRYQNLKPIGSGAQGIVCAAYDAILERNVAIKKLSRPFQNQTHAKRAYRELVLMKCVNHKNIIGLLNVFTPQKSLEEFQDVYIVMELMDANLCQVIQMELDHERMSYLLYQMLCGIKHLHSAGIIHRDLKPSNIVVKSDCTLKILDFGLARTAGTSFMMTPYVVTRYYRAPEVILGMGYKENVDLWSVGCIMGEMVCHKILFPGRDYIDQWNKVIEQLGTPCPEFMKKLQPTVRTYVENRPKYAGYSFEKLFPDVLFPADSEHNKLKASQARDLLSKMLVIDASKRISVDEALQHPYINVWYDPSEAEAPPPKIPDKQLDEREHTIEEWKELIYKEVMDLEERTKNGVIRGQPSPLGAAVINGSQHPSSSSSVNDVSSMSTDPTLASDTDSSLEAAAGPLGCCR

MARK3 = MARK3 (Homo sapiens, UniProt P27448); design: Dundee MRC-PPU Express kinase screen, remaining kinase activity; details: read-out: Mean % of remaining kinase activity (±sd)
MKK1 = biological target: T5, MKK1 (Homo sapiens, UniProt Q02750); design: Dundee MRC-PPU Express kinase screen, remaining kinase activity; details: read-out: Mean % of remaining kinase activity (±sd)
T5 construct: gene MAP2K1

M3 (h) = biological target: T6, M3 (h) (Homo sapiens, UniProt P20309); design: CEREP ExpresSProfile competition binding, remaining control specific binding of reference compound; details: radioligand binding; read-out: Mean % of control specific binding (±sd)
T6 construct: gene CHRM3
T6 sequence (P20309 whole entry): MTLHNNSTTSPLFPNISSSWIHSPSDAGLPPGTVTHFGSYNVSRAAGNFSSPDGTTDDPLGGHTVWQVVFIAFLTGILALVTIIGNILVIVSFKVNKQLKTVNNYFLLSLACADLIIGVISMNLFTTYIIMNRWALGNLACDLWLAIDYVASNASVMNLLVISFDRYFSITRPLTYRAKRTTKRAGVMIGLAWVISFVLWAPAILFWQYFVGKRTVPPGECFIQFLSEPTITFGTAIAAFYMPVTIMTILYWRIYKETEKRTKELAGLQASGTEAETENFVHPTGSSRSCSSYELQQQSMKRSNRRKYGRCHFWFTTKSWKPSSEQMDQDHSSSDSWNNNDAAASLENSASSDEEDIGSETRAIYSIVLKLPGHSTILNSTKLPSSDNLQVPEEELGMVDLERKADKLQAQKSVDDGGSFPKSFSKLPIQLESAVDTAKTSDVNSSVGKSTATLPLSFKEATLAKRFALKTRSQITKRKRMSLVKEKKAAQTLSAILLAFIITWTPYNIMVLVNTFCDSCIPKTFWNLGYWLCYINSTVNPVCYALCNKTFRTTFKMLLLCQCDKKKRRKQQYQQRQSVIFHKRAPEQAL

CXCR2 (IL-8B) (h) = CXCR2 (IL-8B) (h) (Homo sapiens, UniProt P25025); design: CEREP ExpresSProfile competition binding, remaining control specific binding of reference compound; details: radioligand binding; read-out: Mean % of control specific binding (±sd)
5-HT7 (h) = biological target: T7, 5-HT7 (h) (Homo sapiens, UniProt P34969); design: CEREP ExpresSProfile competition binding, remaining control specific binding of reference compound; details: radioligand binding; read-out: Mean % of control specific binding (±sd)
T7 construct: gene HTR7

H2 (h) = biological target: T8, H2 (h) (Homo sapiens, UniProt P25021); design: CEREP ExpresSProfile competition binding, remaining control specific binding of reference compound; details: radioligand binding; read-out: Mean % of control specific binding (±sd)
T8 construct: gene HRH2

5-HT3 (h) = biological target: T9, 5-HT3 (h) (Homo sapiens, UniProt P46098); design: CEREP ExpresSProfile competition binding, remaining control specific binding of reference compound; details: radioligand binding; read-out: Mean % of control specific binding (±sd)
T9 construct: gene HTR3A

NK2 (h) = biological target: T10, NK2 (h) (Homo sapiens, UniProt P21452); design: CEREP ExpresSProfile competition binding, remaining control specific binding of reference compound; details: radioligand binding; read-out: Mean % of control specific binding (±sd)
T10 construct: gene TACR2

beta 1 (h) = biological target: T11, beta 1 (h) (Homo sapiens, UniProt P08588); design: CEREP ExpresSProfile competition binding, remaining control specific binding of reference compound; details: radioligand binding; read-out: Mean % of control specific binding (±sd)
T11 construct: gene ADRB1
T11 sequence (P08588 whole entry): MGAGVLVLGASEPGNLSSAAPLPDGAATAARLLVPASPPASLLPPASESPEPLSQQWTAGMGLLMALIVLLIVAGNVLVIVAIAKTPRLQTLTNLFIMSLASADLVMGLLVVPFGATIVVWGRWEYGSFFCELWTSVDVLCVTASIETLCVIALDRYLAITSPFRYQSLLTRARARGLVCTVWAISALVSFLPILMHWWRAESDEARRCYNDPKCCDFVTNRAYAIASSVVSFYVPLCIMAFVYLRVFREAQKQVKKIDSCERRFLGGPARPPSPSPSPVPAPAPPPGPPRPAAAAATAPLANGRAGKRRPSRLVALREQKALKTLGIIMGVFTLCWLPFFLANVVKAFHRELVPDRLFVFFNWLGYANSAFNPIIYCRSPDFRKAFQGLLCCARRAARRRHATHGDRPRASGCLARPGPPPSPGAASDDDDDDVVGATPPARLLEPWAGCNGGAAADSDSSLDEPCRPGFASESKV

MC4 (h) = biological target: T12, MC4 (h) (Homo sapiens, UniProt P32245); design: CEREP ExpresSProfile competition binding, remaining control specific binding of reference compound; details: radioligand binding; read-out: Mean % of control specific binding (±sd)
T12 construct: gene MC4R
T12 sequence (P32245 whole entry): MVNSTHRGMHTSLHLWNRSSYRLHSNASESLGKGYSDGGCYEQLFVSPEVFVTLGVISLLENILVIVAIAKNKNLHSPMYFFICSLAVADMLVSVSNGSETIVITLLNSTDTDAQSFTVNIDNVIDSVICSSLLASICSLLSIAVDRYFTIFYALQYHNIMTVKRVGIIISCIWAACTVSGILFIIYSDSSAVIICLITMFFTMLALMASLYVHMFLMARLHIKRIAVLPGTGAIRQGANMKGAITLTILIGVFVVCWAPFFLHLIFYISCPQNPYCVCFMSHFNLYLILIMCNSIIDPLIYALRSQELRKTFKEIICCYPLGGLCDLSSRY

CCR1 (h) = CCR1 (h) (Homo sapiens, UniProt P32246); design: CEREP ExpresSProfile competition binding, remaining control specific binding of reference compound; details: radioligand binding; read-out: Mean % of control specific binding (±sd)
CCR1 (h), sequence (P32246 whole entry): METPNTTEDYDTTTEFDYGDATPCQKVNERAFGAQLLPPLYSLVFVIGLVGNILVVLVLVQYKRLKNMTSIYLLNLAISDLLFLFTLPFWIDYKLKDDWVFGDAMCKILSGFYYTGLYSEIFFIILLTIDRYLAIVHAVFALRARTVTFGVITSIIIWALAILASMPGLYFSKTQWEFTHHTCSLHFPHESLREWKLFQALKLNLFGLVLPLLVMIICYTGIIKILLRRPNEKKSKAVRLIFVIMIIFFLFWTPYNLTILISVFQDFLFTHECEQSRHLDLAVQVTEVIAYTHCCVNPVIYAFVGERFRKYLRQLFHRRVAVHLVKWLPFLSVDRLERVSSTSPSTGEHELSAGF

A2A (h) = biological target: T13, A2A (h) (Homo sapiens, UniProt P29274); design: CEREP ExpresSProfile competition binding, remaining control specific binding of reference compound; details: radioligand binding; read-out: Mean % of control specific binding (±sd)
T13 construct: gene ADORA2A
T13 sequence (P29274 whole entry): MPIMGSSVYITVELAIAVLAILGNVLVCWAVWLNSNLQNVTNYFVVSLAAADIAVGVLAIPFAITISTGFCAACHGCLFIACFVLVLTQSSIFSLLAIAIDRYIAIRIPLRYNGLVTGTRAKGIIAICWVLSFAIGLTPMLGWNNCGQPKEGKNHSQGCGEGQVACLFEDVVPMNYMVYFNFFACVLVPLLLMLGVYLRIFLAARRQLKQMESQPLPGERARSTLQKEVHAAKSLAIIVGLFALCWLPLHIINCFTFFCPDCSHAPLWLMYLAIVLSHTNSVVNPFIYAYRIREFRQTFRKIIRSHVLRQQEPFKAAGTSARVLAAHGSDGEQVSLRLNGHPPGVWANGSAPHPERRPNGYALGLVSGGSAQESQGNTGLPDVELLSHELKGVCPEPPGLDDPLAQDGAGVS

5-HT transporter (h) = biological target: T14, 5-HT transporter (h) (Homo sapiens, UniProt P31645); design: CEREP ExpresSProfile competition binding, remaining control specific binding of reference compound; details: radioligand binding; read-out: Mean % of control specific binding (±sd)
T14 construct: gene SLC6A4
T14 sequence (P31645 whole entry): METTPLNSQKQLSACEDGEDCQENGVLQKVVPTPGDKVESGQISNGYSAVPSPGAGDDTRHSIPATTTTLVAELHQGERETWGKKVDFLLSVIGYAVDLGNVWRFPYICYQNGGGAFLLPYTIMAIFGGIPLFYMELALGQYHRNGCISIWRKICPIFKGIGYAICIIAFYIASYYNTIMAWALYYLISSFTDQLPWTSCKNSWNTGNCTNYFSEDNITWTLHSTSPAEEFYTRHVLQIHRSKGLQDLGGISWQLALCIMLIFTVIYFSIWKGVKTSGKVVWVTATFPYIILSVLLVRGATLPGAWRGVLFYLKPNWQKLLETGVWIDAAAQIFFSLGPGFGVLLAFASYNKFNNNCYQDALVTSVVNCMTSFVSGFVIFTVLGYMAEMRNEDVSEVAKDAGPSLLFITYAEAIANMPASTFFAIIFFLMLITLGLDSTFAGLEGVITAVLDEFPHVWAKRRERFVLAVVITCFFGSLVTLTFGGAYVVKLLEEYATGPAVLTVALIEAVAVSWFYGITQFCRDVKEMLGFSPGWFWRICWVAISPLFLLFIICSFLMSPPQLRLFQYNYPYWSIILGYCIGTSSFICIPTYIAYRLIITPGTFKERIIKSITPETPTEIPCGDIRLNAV

5-HT2B (h) = biological target: T15, 5-HT2B (h) (Homo sapiens, UniProt P41595); design: CEREP ExpresSProfile competition binding, remaining control specific binding of reference compound; details: radioligand binding; read-out: Mean % of control specific binding (±sd)
T15 construct: gene HTR2B
T15 sequence (P41595 whole entry): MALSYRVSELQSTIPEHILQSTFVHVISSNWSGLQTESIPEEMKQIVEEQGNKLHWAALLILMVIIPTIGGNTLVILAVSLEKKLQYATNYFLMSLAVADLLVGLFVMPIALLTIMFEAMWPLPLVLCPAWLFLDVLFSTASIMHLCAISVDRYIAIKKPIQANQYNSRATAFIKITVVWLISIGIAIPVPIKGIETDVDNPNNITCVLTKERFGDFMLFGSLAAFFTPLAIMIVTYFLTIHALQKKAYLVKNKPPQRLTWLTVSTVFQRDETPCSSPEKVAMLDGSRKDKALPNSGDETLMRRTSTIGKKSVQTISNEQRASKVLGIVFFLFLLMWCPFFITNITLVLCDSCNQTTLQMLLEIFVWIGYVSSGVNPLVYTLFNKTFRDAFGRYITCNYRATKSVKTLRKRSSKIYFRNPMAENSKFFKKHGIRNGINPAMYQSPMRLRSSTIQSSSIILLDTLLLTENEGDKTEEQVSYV

CCK1 (CCKA) (h) = biological target: T16, CCK1 (CCKA) (h) (Homo sapiens, UniProt P32238); design: CEREP ExpresSProfile competition binding, remaining control specific binding of reference compound; details: radioligand binding; read-out: Mean % of control specific binding (±sd)
T16 construct: gene CCKAR

5-HT5a (h) = biological target: T17, 5-HT5a (h) (Homo sapiens, UniProt P47898); design: CEREP ExpresSProfile competition binding, remaining control specific binding of reference compound; details: radioligand binding; read-out: Mean % of control specific binding (±sd)
T17 construct: gene HTR5A
T17 sequence (P47898 whole entry): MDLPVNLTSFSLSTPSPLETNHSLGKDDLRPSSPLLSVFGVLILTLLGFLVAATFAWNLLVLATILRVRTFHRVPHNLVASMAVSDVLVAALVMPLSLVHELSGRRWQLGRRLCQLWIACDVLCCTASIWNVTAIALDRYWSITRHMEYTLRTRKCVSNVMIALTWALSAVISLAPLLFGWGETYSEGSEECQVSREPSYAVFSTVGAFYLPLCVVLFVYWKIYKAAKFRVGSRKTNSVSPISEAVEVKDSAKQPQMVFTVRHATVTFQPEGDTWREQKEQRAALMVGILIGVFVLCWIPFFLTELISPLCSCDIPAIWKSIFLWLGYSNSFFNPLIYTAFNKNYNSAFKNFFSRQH

dopamine transporter (h) = biological target: T18, dopamine transporter (h) (Homo sapiens, UniProt Q01959); design: CEREP ExpresSProfile competition binding, remaining control specific binding of reference compound; details: radioligand binding; read-out: Mean % of control specific binding (±sd)
T18 construct: gene SLC6A3

mu (MOP) (h) = biological target: T19, mu (MOP) (h) (Homo sapiens, UniProt P35372); design: CEREP ExpresSProfile competition binding, remaining control specific binding of reference compound; details: radioligand binding; read-out: Mean % of control specific binding (±sd)
T19 construct: gene OPRM1

Y2 (h) = biological target: T20, Y2 (h) (Homo sapiens, UniProt P49146); design: CEREP ExpresSProfile competition binding, remaining control specific binding of reference compound; details: radioligand binding; read-out: Mean % of control specific binding (±sd)
T20 construct: gene NPY2R

A1 (h) = biological target: T21, A1 (h) (Homo sapiens, UniProt P30542); design: CEREP ExpresSProfile competition binding, remaining control specific binding of reference compound; details: radioligand binding; read-out: Mean % of control specific binding (±sd)
T21 construct: gene ADORA1

delta (DOP) (h) = biological target: T22, delta (DOP) (h) (Homo sapiens, UniProt P41143); design: CEREP ExpresSProfile competition binding, remaining control specific binding of reference compound; details: radioligand binding; read-out: Mean % of control specific binding (±sd)
T22 construct: gene OPRD1
T22 sequence (P41143 whole entry): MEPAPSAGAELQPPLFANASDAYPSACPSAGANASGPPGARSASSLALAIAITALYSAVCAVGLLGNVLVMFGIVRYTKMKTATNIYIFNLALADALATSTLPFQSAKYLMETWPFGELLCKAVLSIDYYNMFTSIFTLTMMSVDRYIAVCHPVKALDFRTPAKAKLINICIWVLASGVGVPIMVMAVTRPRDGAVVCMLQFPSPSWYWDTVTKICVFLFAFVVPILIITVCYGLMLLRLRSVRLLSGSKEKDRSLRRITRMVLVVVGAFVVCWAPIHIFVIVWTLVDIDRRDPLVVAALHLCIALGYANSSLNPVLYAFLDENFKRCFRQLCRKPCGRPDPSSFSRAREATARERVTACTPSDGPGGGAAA

T1 sequence (P23443 whole entry): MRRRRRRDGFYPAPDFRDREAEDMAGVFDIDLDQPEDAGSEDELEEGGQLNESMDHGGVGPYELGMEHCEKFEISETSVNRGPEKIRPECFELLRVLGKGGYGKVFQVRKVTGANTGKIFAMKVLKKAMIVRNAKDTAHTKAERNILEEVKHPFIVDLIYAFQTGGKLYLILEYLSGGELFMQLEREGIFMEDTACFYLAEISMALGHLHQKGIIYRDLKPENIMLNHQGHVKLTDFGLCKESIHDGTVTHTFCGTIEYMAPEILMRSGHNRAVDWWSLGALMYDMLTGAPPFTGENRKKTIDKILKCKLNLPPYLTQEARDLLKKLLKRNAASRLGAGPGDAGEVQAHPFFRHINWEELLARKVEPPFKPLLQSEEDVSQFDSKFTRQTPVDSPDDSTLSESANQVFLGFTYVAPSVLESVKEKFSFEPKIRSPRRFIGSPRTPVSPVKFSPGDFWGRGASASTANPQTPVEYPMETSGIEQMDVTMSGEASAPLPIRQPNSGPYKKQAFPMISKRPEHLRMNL

Question: With `Cc1ncsc1-c1ccc(CNC(=O)[C@@H]2C[C@@H](O)CN2C(=O)[C@@H](NC(=O)C2(C#N)CC2)C(C)(C)C)cc1` [VH298] as the molecule, how does the remaining activity at 50 µM (S6K1) read?
Answer: Its remaining activity at 50 µM is 87%.

Question: What about the remaining activity at 50 µM (PKCa) of the same molecule?
Answer: Its remaining activity at 50 µM is 99%.

Question: What about the remaining activity at 50 µM (PAK4) of the same molecule?
Answer: The remaining activity at 50 µM was 97%.

Question: What about the remaining activity at 50 µM (SmMLCK) of the same molecule?
Answer: The remaining activity at 50 µM was 105%.

Question: What about the remaining activity at 50 µM (JNK1) of the same molecule?
Answer: Its remaining activity at 50 µM is 119%.

Question: What about the remaining activity at 50 µM (MARK3) of the same molecule?
Answer: The remaining activity at 50 µM was 94%.

Question: What about the remaining activity at 50 µM (MKK1) of the same molecule?
Answer: Its remaining activity at 50 µM is 85%.

Question: And the remaining binding at 50 µM (M3 (h))?
Answer: Its remaining binding at 50 µM is 95%.

Question: What about the remaining binding at 50 µM (CXCR2 (IL-8B) (h)) of the same molecule?
Answer: Its remaining binding at 50 µM is 102%.

Question: And the remaining binding at 50 µM (5-HT7 (h))?
Answer: Its remaining binding at 50 µM is 99%.

Question: And the remaining binding at 50 µM (H2 (h))?
Answer: The remaining binding at 50 µM was 140%.

Question: What about the remaining binding at 50 µM (5-HT3 (h)) of the same molecule?
Answer: The remaining binding at 50 µM was 92%.

Question: What about the remaining binding at 50 µM (NK2 (h)) of the same molecule?
Answer: Its remaining binding at 50 µM is 73%.

Question: And the remaining binding at 50 µM (beta 1 (h))?
Answer: Its remaining binding at 50 µM is 83%.

Question: What about the remaining binding at 50 µM (MC4 (h)) of the same molecule?
Answer: Its remaining binding at 50 µM is 98%.

Question: And the remaining binding at 50 µM (CCR1 (h))?
Answer: The remaining binding at 50 µM was 111%.

Question: What about the remaining binding at 50 µM (A2A (h)) of the same molecule?
Answer: The remaining binding at 50 µM was 121%.

Question: What about the remaining binding at 50 µM (5-HT transporter (h)) of the same molecule?
Answer: Its remaining binding at 50 µM is 92%.

Question: What about the remaining binding at 50 µM (5-HT2B (h)) of the same molecule?
Answer: The remaining binding at 50 µM was 91%.

Question: What about the remaining binding at 50 µM (CCK1 (CCKA) (h)) of the same molecule?
Answer: Its remaining binding at 50 µM is 127%.

Question: And the remaining binding at 50 µM (5-HT5a (h))?
Answer: The remaining binding at 50 µM was 105%.

Question: What about the remaining binding at 50 µM (dopamine transporter (h)) of the same molecule?
Answer: Its remaining binding at 50 µM is 90%.

Question: And the remaining binding at 50 µM (mu (MOP) (h))?
Answer: The remaining binding at 50 µM was 106%.

Question: And the remaining binding at 50 µM (Y2 (h))?
Answer: The remaining binding at 50 µM was 97%.

Question: And the remaining binding at 50 µM (A1 (h))?
Answer: The remaining binding at 50 µM was 90%.

Question: What about the remaining binding at 50 µM (delta (DOP) (h)) of the same molecule?
Answer: Its remaining binding at 50 µM is 65%.
